Test results: patent US10435752B2, “Use of ADCY3 for diagnosis and treatment of gastric cancer” (NATIONAL CANCER CENTER, priority 2012, dated 2019)

Assays:
ADCY3 promoter = ADCY3 promoter methylation after in vitro demethylation (bisulfite sequencing); type: cell-based, human; conditions: KATO III cells, 10 μM, 96 hrs, FIG. 5D
Method: To assay the methylation status of the ADCY3 promoter, genomic DNA was bisulfite-treated using the EZ DNA Methylation-Gold Kit (ZYMO Research, USA), and treated with methylation-specific PCR primers (Table 3) that were designed using EpiDesigner (Sequenom, USA).
A methylation-specific high-resolution melting assay (MS-HRM) was performed using 10 ng of bisulfite-treated genomic DNA and ResoLight dye in a LightCycler 480 (Roche Applied Science) according to the manufacturer's protocol. Results were analyzed using Gene Scanning software (Roche). For bisulfite sequencing, the promoter region containing 39 CpG sites was amplified from the genomic DNA of bisulfite-treated gastric cells, cloned into the TOPO-TA vector (Invitrogen), and sequenced using the 3730xl DNA analyzer (Applied Biosystems).
To investigate the effects of promoter demethylation on ADCY3 expression, KATO III cells were incubated for 96 hrs in a culture medium with or without 5-Aza-2′-deoxycytidine (5-Aza-dC; Sigma Aldrich, USA) at a final concentration of 10 μM, and the mRNA level of ADCY3 was measured using qRT-PCR.

ADCY3 = ADCY3 mRNA level by qRT-PCR after demethylation; type: cell-based, human; conditions: KATO III cells, 10 μM, 96 hrs, relative to the negative control, FIG. 5E
Method: qRT-PCR reactions were performed using a LightCycler 480 (Roche Applied Science, UK) and ABI 7500 Fast Real-Time PCR system (Applied Biosystems). Results were quantified either by using β-actin for normalization (relative quantification), or by standard curve-based absolute quantification. To investigate the effects of promoter demethylation on ADCY3 expression, KATO III cells were incubated for 96 hrs in a culture medium with or without 5-Aza-2′-deoxycytidine (5-Aza-dC; Sigma Aldrich, USA) at a final concentration of 10 μM, and the mRNA level of ADCY3 was measured using qRT-PCR.

Nc1ncn([C@H]2C[C@H](O)[C@@H](CO)O2)c(=O)n1 [5-Aza-dC, 5-Aza-2′-deoxycytidine]
methylation of CpG sites in the ADCY3 promoter (ADCY3 promoter): demethylation of CpG sites
ADCY3 mRNA expression level (ADCY3): recovery of ADCY3 mRNA expression level
